Measurements as given in patent publication US20040063662A1, “Selenophene anti-tumor agents” (priority 1996, published 2004).
≈ marks a conversion by molar mass, not a printed value. Where “and” joins values, the source holds several entries; their conditions need not be identical. Equal entries are not always repeated. Where two headings read alike, the source gives them in different places.

Legend:
[1] = test system: ras-transformed human bronchial epithelial cells (TBE); assay: Selective cytotoxicity microculture assay, ras-transformed bronchial epithelial cells; format: cell-based
[2] = test system: normal human renal cells (RPTEC); assay: Selective cytotoxicity microculture assay, normal human renal cells; format: cell-based
[3] = test system: human renal carcinoma cells (A-498); assay: Selective cytotoxicity microculture assay, human renal carcinoma
[4] = target: T1, 50:50 mixture of recombinant mouse PKCα and mouse PKCβ2; assay: Protein Kinase C (PKC) screening assay; format: biochemical; details: Inhibition of Protein Kinase C
T1 construct: The enzymes are expressed in Sf9 insect cells from recombinant baculovirus and partially purified on DEAE-cellulose and Sephacryl 200 gel filtration
Description: The Protein Kinase C (PKC) screening assay utilized in the following experiments is similar to standard PKC assays used by many investigators. Its primary features are that 1) the assay utilizes a 50:50 mixture of recombinant mouse PKCα and mouse PKCβ2; 2) employs histone as phosphate-accepting substrate; and 3) the PKC enzymatic activity is activated with phosphatidylserine, TPA and low concentration of calcium, so that both calcium and TPA are somewhat limiting for the extent of activation. In this manner the assay is sensitive to inhibitors of PKC activation. A more detailed description of the assay is provided in the following paragraphs.
The recombinant PKC formulation is a mixture (equal parts by activity) of mouse PKCα and mouse PKCβ2. The enzymes are expressed in Sf9 insect cells from recombinant baculovirus and partially purified on DEAE-cellulose and Sephacryl 200 gel filtration. Sufficient PKC is added to each reaction to provide approximately 4 pmols phosphate transferred in 30 minute (per total reaction.) The reaction is linear over the time when 4 pmols of phosphate is transferred and the reaction remains linear well beyond this time frame.
The PKC screening assay is performed in 96 well polystyrene U bottom micro titer plates, in a total reaction volume of 50 ul. Solution manipulations are performed during the assay utilize a Rainin, motorized EDP-plus M8 eight-channel micropipettor.
In some cases 50% DMSO:water, water, or methanol is substituted (if essential) for the solvent. At least 25 μl of the highest concentration sample to be assayed is transferred to a well in a 96 well U-bottom polystyrene assay plate. Serial 5-fold or 10-fold dilutions (depending on the dose-range desired) are made using the EDP-plus M8 eight-channel pipettor in dilute mode and mixing by repipetting. Using the 8-channel pipettor, 2 μl of each dilution is transferred to the appropriate wells of the plate(s) to be used for each assay. Duplicate assays are performed for each dose, with each assay, allowing six wells (half the row) for three-dose assays, or 12 wells (the whole row) for six-dose assays. In general, extracts and fractions are assayed at three doses: 400, 40 an 4 ug/ml, while pure compounds are tested at six doses: 400, 80, 16, 3.2, 0.64, 0.128 ([…]).

[5] = Selective cytotoxicity microculture assay, human renal carcinoma; details: human, SCI (selectively cytotoxicity index), GI50 (RPTEC)/GI50 (A-498)
[6] = In vitro activity of glycoside prodrug (preliminary); format: cell-based; details: preliminary results
Description: (§1) a. […] Scheme 8 illustrates a procedure utilized for the synthesis of glucoside, galactoside or, glucuronic acid analogs of α-terselenophene: [drawing 60]

[7] = In vivo activity of glycoside prodrug (preliminary); details: preliminary results
Description: as §1

[8] = Homo sapiens, Epithelial cell, read-out: GI50
[9] = Homo sapiens, RPTEC, read-out: GI50
[10] = Homo sapiens, A498, A-498 human renal carcinoma

Structure (SMILES) | IC50 [4] | GI50 [1, 8] [µg/mL] | GI50 [2, 9] [µg/mL] | GI50 [3, 10] [µg/mL] | selectivity ratio [5] | other results
c1csc(-c2ccc(-c3ccc[se]3)s2)c1 | – | – | – | – | – | melting point: 103 to 104 °C
COc1cccc2c1C(=O)c1c(O)c3c(c(O)c1C2=O)C[C@@](O)(C(=O)CO)C[C@@H]3O[C@H]1C[C@H](N)[C@H](O)[C@H](C)O1 [compound 123127] | – | – | – | – | – | GI50 [1]: 0.03 µg/mL (≈ 0.0552 µM); GI50 [2]: 0.05 µg/mL (≈ 0.092 µM); GI50 ([3]; A-498 human renal carcinoma): 0.05 µg/mL (≈ 0.092 µM); SCI (selectively cytotoxicity index) ([3]; GI50 (RPTEC)/GI50 (A-498)): 1
c1c[se]c(-c2ccc(-c3ccc[se]3)[se]2)c1 [compound 674973] | 7 × 10^0 μg/ml | 4 (≈ 10.3 µM) | 4 (≈ 10.3 µM) | 3 (≈ 7.71 µM) | 1 | –
O=Cc1ccc(-c2ccc(-c3ccc[se]3)[se]2)[se]1 [compound 675244] | 1 × 10^0 μg/ml | – | – | – | – | –
O=Cc1ccc(-c2ccc(-c3ccc(C=O)[se]3)[se]2)[se]1 [compound 675245] | 1 × 10^0 μg/ml | – | – | – | – | –
OCc1ccc(-c2ccc(-c3cccs3)[se]2)s1 [compound 675344] | 50 µg/mL (≈ 154 µM) | – | – | – | > 1000 | GI50 [1]: <10^−2 μg/ml and 7 × 10^−6 μg/ml; GI50 ([3]; A-498 human renal carcinoma): 3e-07 µg/mL and 6e-08 µg/mL
O=Cc1ccc(-c2ccc(-c3ccc(C=O)s3)[se]2)s1 [compound 675345] | 0.9 µg/mL (≈ 2.56 µM) | – | – | – | – | –
O=Cc1ccc(-c2ccc(-c3cccs3)[se]2)s1 [compound 675346] | 0.5 µg/mL (≈ 1.55 µM) | – | – | – | – | –
c1csc(-c2ccc(-c3cccs3)[se]2)c1 [compound 675347] | 1 × 10^0 μg/ml | 10 (≈ 33.9 µM) | 20 (≈ 67.7 µM) | 30 (≈ 102 µM) | < 1 | –
c1c[se]c(-c2ccc(-c3ccc[se]3)s2)c1 [compound 676628] | 1 × 10^0 μg/ml | 100 (≈ 292 µM) | 400 (≈ 1170 µM) | 80 (≈ 234 µM) | 5 | –
O=Cc1ccc(-c2ccc(-c3ccc[se]3)s2)[se]1 [compound 676629] | 0.2 µg/mL (≈ 0.54 µM) | – | – | – | – | –
O=Cc1ccc(-c2ccc(-c3ccc(C=O)[se]3)s2)[se]1 [compound 676630] | 0.9 µg/mL (≈ 2.26 µM) | – | – | – | – | –
c1c[se]c(-c2ccc(-c3ccc[se]3)[nH]2)c1 [compound 676633] | 6 × 10^0 μg/ml | 10 (≈ 30.8 µM) | 20 (≈ 61.5 µM) | 100 (≈ 308 µM) | < 1 | –
O=Cc1ccc(-c2ccc(-c3ccc[se]3)[nH]2)[se]1 [compound 676634] | 0.8 µg/mL (≈ 2.27 µM) | – | – | – | – | GI50 [1]: 0.0003 µg/mL and 0.006 µg/mL; GI50 ([3]; A-498 human renal carcinoma): 0.0006 µg/mL and 0.003 µg/mL
OCc1ccc(-c2ccc(-c3ccc[se]3)[nH]2)[se]1 [compound 676635] | 8 × 10^0 μg/ml | 20 (≈ 56.3 µM) | 2 (≈ 5.63 µM) | < 0.001 | > 1000 | –
OC[C@H]1O[C@@H](OCc2ccc(-c3ccc(-c4cccs4)s3)s2)[C@H](O)[C@@H](O)[C@@H]1O [β-D-glucoside of 2-hydroxymethyl-α-terthiophene] | – | – | – | – | – | in vitro activity [6]: retains; in vivo activity [7]: retains
